From patent publication US20130096170A1 (priority 2011, published 2013)
Like-named read-outs stand apart in the source and are kept apart here.

Experiments:
clinical [1] = settings: human, in vivo
clinical [2] = settings: human, plasma, intravenous
[3] = in vivo
[4] = human, in vivo
[5] = Dose Level 1, LD 0.25/CD 0.2 μg/kg/hr, full evaluable population
[6] = Dose Level 2, LD 0.50/CD 0.4 μg/kg/hr, full evaluable population
[7] = Dose Level 3, LD 1.00/CD 0.7 μg/kg/hr, full evaluable population
[8] = Dose Level 4, LD 1.00/CD 2.00 μg/kg/hr, full evaluable population
[9] = Table 30 key summary (mean), Dose Level 1, LD 0.25/CD 0.2 μg/kg/hr, full evaluable population
[10] = Table 30 key summary (mean), Dose Level 2, LD 0.50/CD 0.4 μg/kg/hr, full evaluable population
[11] = Table 30 key summary (mean), Dose Level 3, LD 1.00/CD 0.7 μg/kg/hr, full evaluable population
[12] = Table 30 key summary (mean), Dose Level 4, LD 1.00/CD 2.00 μg/kg/hr, full evaluable population

## Cc1cccc([C@H](C)c2cnc[nH]2)c1C [dexmedetomidine]
Clinical [1]; t1/2, Mean
  half-life: 2.33 h
Clinical [1]; t1/2 Median
  half-life: 1.87 h
Clinical [2]; CL, Geo. Mean of individual Bayesian estimates, 1 month-<6 months (n = 14)
  clearance: 116 mL/min
Clinical [2]; CL, Geo. Mean of individual Bayesian estimates, 2 y-<6 y (n = 26)
  clearance: 265 mL/min
Clinical [2]; CL, Geo. Mean of individual Bayesian estimates, 6 months-<12 months (n = 16)
  clearance: 136 mL/min
Clinical [2]; CL, Geo. Mean of individual Bayesian estimates, 6 y-<17 y (n = 29)
  clearance: 408 mL/min
Clinical [2]; CL, Geo. Mean of individual Bayesian estimates, 12 months-<24 months (n = 13)
  clearance: 179 mL/min
Clinical [2]; CL, Geo. Mean of individual Bayesian estimates, 28 weeks GA-<1 month (n = 28)
  clearance: 38 mL/min
Clinical [2]; CL, elimination clearance (population mean), final population PK model, Examples 5, 3, 1 and 7
  clearance: 178 mL/min
Clinical [2]; Volume of Distribution, Geo. Mean of individual Bayesian estimates, 1 month-<6 months (n = 14)
  Vd: 17.3 L
Clinical [2]; Volume of Distribution, Geo. Mean of individual Bayesian estimates, 2 y-<6 y (n = 26)
  Vd: 33.7 L
Clinical [2]; Volume of Distribution, Geo. Mean of individual Bayesian estimates, 6 months-<12 months (n = 16)
  Vd: 21.2 L
Clinical [2]; Volume of Distribution, Geo. Mean of individual Bayesian estimates, 6 y-<17 y (n = 29)
  Vd: 51.6 L
Clinical [2]; Volume of Distribution, Geo. Mean of individual Bayesian estimates, 12 months-<24 months (n = 13)
  Vd: 23.9 L
Clinical [2]; Volume of Distribution, Geo. Mean of individual Bayesian estimates, 28 weeks GA-<1 month (n = 28)
  Vd: 14.1 L
Clinical [2]; Weight-Adjusted CL, Geometric Mean (individual Bayesian estimates), Including Additional 11 Subjects, 1 month-<6 months (n = 14)
  clearance: 20.2 mL/min/kg
Clinical [2]; Weight-Adjusted CL, Geometric Mean (individual Bayesian estimates), Including Additional 11 Subjects, 2 y-<6 y (n = 26)
  clearance: 18.5 mL/min/kg
Clinical [2]; Weight-Adjusted CL, Geometric Mean (individual Bayesian estimates), Including Additional 11 Subjects, 6 months-<12 months (n = 16)
  clearance: 18.5 mL/min/kg
Clinical [2]; Weight-Adjusted CL, Geometric Mean (individual Bayesian estimates), Including Additional 11 Subjects, 6 y-<17 y (n = 29)
  clearance: 13.3 mL/min/kg
Clinical [2]; Weight-Adjusted CL, Geometric Mean (individual Bayesian estimates), Including Additional 11 Subjects, 12 months-<24 months (n = 13)
  clearance: 17.7 mL/min/kg
Clinical [2]; Weight-Adjusted CL, Geometric Mean (individual Bayesian estimates), Including Additional 11 Subjects, 28 weeks GA-<1 month (n = 28)
  clearance: 15.5 mL/min/kg
Clinical [2]; Weight-Adjusted Vd, Geometric Mean (individual Bayesian estimates), Including Additional 11 Subjects, 1 month-<6 months (n = 14)
  Vd: 3.02 L/kg
Clinical [2]; Weight-Adjusted Vd, Geometric Mean (individual Bayesian estimates), Including Additional 11 Subjects, 2 y-<6 y (n = 26)
  Vd: 2.35 L/kg
Clinical [2]; Weight-Adjusted Vd, Geometric Mean (individual Bayesian estimates), Including Additional 11 Subjects, 6 months-<12 months (n = 16)
  Vd: 2.89 L/kg
Clinical [2]; Weight-Adjusted Vd, Geometric Mean (individual Bayesian estimates), Including Additional 11 Subjects, 6 y-<17 y (n = 29)
  Vd: 1.68 L/kg
Clinical [2]; Weight-Adjusted Vd, Geometric Mean (individual Bayesian estimates), Including Additional 11 Subjects, 12 months-<24 months (n = 13)
  Vd: 2.35 L/kg
Clinical [2]; Weight-Adjusted Vd, Geometric Mean (individual Bayesian estimates), Including Additional 11 Subjects, 28 weeks GA-<1 month (n = 28)
  Vd: 5.74 L/kg
[5]
  Css Mean: 402.026 µg/mL
  Css Median: 197.991 µg/mL
  λz Mean: 0.469 h⁻¹
  λz Median: 0.446 h⁻¹
[6]
  Css Mean: 539.848 µg/mL
  Css Median: 513.902 µg/mL
  λz Mean: 0.408 h⁻¹
  λz Median: 0.411 h⁻¹
[7]
  Css Mean: 1347.284 µg/mL
  Css Median: 947.907 µg/mL
  λz Mean: 0.369 h⁻¹
  λz Median: 0.386 h⁻¹
[8]
  Css Mean: 2827.144 µg/mL
  Css Median: 2665.409 µg/mL
  λz Mean: 0.360 h⁻¹
  λz Median: 0.326 h⁻¹
[9]
  Css: 0.402 ng/mL
  λz: 0.5 h⁻¹
[10]
  Css: 0.5398 ng/mL
  λz: 0.4 h⁻¹
[11]
  Css: 1.3473 ng/mL
  λz: 0.4 h⁻¹
[12]
  Css: 2.8271 ng/mL
  λz: 0.4 h⁻¹
human, in vivo
  Css: 5.74355e+09 ng/mL
  dose proportionality of AUC and Cmax: dose proportionality and a linear relationship
[3]; human
  power-model slope (95% confidence interval) for AUC0-inf: 1.263 (0.820, 1.706)
  power-model slope (95% confidence interval) for Cmax: 0.898 (0.652, 1.143)
[3]
  pharmacokinetic linearity / dose proportionality: linearity and dose proportionality
[4]
  CL, predicted: 47.8 L/h
  Exponent of power relationship between Q and age, Population Mean: −0.509
  IIV in Q: 117 % CV
  Proportional shift in allometric exponent for Vc for neonates, Population Mean: 0.513
  Q, model value: 68.21 L/h
  Slope of linear age effect on Vp, Population Mean: −1.43 L/y
  Vc, model value: 6.22 L
  Vp, model value: 13.21 L
  interindividual variability in CL, Vc, and Vp: 35-55 % CV
  terminal elimination (β) half-life: 1.8 h
  unexplained interindividual variability (IIV) in Q: 163 % CV
  volume of distribution, predicted: 114.6 L
